# According to ChEMBL document CHEMBL5143615, “Novel 2-aryl-4-aryloxyquinoline-based fungistatics for Mucor circinelloides. Biological evaluation of activity, QSAR and docking study” (Bioorg Med Chem Lett, 2022):
# Activity calls are given as the source filed them. The calls are words filed in the database; no cut-off is given here.
# Tests used:
# [1] = test system: Mucor circinelloides; assay: Antifungal activity against Mucor circinelloides R7B wild type strain assessed as reduction in spore germination at 25 ug/ml relative to control; assay type: functional; design: scale not given: the % may be the effect or the level left; conditions: dose 25 µg/ml
# [2] = test system: Mucor circinelloides; assay: Antifungal activity against Mucor circinelloides M5 strain assessed as reduction in spore germination at 25 ug/ml relative to control; assay type: functional; design: scale not given: the % may be the effect or the level left; conditions: dose 25 µg/ml
# [3] = test system: Mucor circinelloides; assay: Antifungal activity against Mucor circinelloides R7B wild type strain assessed as reduction in spore germination at 50 ug/ml relative to control; assay type: functional; design: scale not given: the % may be the effect or the level left; conditions: dose 50 µg/ml
# [4] = test system: Mucor circinelloides; assay: Antifungal activity against Mucor circinelloides M5 strain assessed as reduction in spore germination at 50 ug/ml relative to control; assay type: functional; design: scale not given: the % may be the effect or the level left; conditions: dose 50 µg/ml
# [5] = test system: Mucor circinelloides; assay: Antifungal activity against Mucor circinelloides R7B wild type strain assessed as reduction in spore germination at 150 ug/ml relative to control; assay type: functional; design: scale not given: the % may be the effect or the level left; conditions: dose 150 µg/ml
# [6] = test system: Mucor circinelloides; assay: Antifungal activity against Mucor circinelloides M5 strain assessed as reduction in spore germination at 150 ug/ml relative to control; assay type: functional; design: scale not given: the % may be the effect or the level left; conditions: dose 150 µg/ml
# [7] = test system: Microsporum canis; assay: Antifungal activity against Microsporum canis clinical isolate 1 assessed as reduction in fungal growth by broth dilution method; assay type: functional
# [8] = test system: Microsporum canis; assay: Antifungal activity against Microsporum canis clinical isolate 2 assessed as reduction in fungal growth by broth dilution method; assay type: functional
# [9] = test system: Microsporum canis; assay: Antifungal activity against Microsporum canis clinical isolate 3 assessed as reduction in fungal growth by broth dilution method; assay type: functional
# [10] = test system: Nannizzia gypsea; assay: Antifungal activity against Microsporum gypseum clinical isolate 1 assessed as reduction in fungal growth by broth dilution method; assay type: functional
# [11] = test system: Nannizzia gypsea; assay: Antifungal activity against Microsporum gypseum clinical isolate 2 assessed as reduction in fungal growth by broth dilution method; assay type: functional
# [12] = test system: Mucor circinelloides; assay: Antifungal activity against Mucor circinelloides M5 strain assessed as reduction in fungal growth by broth dilution method; assay type: functional
# [13] = test system: Trichophyton mentagrophytes; assay: Antifungal activity against Trichophyton mentagrophytes clinical isolate 1 assessed as reduction in fungal growth by broth dilution method; assay type: functional
# [14] = test system: Trichophyton mentagrophytes; assay: Antifungal activity against Trichophyton mentagrophytes clinical isolate 2 assessed as reduction in fungal growth by broth dilution method; assay type: functional
# [15] = test system: Trichophyton mentagrophytes; assay: Antifungal activity against Trichophyton mentagrophytes clinical isolate 3 assessed as reduction in fungal growth by broth dilution method; assay type: functional
# [16] = test system: Trichophyton rubrum; assay: Antifungal activity against Trichophyton rubrum clinical isolate 1 assessed as reduction in fungal growth by broth dilution method; assay type: functional
# [17] = test system: Trichophyton rubrum; assay: Antifungal activity against Trichophyton rubrum clinical isolate 2 assessed as reduction in fungal growth by broth dilution method; assay type: functional
# [18] = test system: Epidermophyton floccosum; assay: Antifungal activity against Epidermophyton floccosum clinical isolate 1 assessed as reduction in fungal growth by broth dilution method; assay type: functional
# [19] = test system: Aspergillus nidulans; assay: Antifungal activity against Aspergillus nidulans clinical isolate 1 assessed as reduction in fungal growth by broth dilution method; assay type: functional
# [20] = test system: Aspergillus nidulans; assay: Antifungal activity against Aspergillus nidulans clinical isolate 2 assessed as reduction in fungal growth by broth dilution method; assay type: functional
# [21] = test system: Aspergillus niger; assay: Antifungal activity against Aspergillus niger clinical isolate 1 assessed as reduction in fungal growth by broth dilution method; assay type: functional
# [22] = test system: Mucor circinelloides; assay: Antifungal activity against Mucor circinelloides R7B wild type strain assessed as reduction in fungal growth by broth dilution method; assay type: functional
# [23] = Cytotoxicity against mouse NIH/3T3 cells assessed as reduction in cell viability at 25 ug/ml incubated for 48 hrs by MTT assay (reference value: 93.8 +/- 4.9 %); assay type: toxicity, cell-based, NIH3T3; conditions: at 25 µg/mL, read-out: Activity
# [24] = Cytotoxicity against mouse NIH/3T3 cells assessed as reduction in cell viability at 50 ug/ml incubated for 48 hrs by MTT assay (reference value: 93.8 +/- 4.9 %); assay type: toxicity, cell-based, NIH3T3; conditions: at 50 µg/mL, read-out: Activity
# [25] = Cytotoxicity against mouse NIH/3T3 cells assessed as reduction in cell viability at 100 ug/ml incubated for 48 hrs by MTT assay (reference value: 93.8 +/- 4.9 %); assay type: toxicity, cell-based, NIH3T3; conditions: at 100 µg/mL, read-out: Activity
# [26] = Cytotoxicity against mouse NIH/3T3 cells assessed as reduction in cell viability at 150 ug/ml incubated for 48 hrs by MTT assay (reference value: 93.8 +/- 4.9 %); assay type: toxicity, cell-based, NIH3T3; conditions: at 150 µg/mL, read-out: Activity
# [27] = Cytotoxicity against mouse NIH/3T3 cells assessed as reduction in cell viability at 200 ug/ml incubated for 48 hrs by MTT assay (reference value: 93.8 +/- 4.9 %); assay type: toxicity, cell-based, NIH3T3; conditions: at 200 µg/mL, read-out: Activity
# [28] = biological target: T1, Lanosterol 14-alpha demethylase (Mus musculus, UniProt Q8K0C4); assay: Inhibition of CYP51 in mouse NIH/3T3 cells assessed as specific enzymatic activity at 25 ug/ml incubated for 48 hrs by ELISA analysis; assay type: ADME, cell-based; conditions: nih/3t3, 48 h, dose 25 µg/ml
# T1 sequence (Q8K0C4 whole entry): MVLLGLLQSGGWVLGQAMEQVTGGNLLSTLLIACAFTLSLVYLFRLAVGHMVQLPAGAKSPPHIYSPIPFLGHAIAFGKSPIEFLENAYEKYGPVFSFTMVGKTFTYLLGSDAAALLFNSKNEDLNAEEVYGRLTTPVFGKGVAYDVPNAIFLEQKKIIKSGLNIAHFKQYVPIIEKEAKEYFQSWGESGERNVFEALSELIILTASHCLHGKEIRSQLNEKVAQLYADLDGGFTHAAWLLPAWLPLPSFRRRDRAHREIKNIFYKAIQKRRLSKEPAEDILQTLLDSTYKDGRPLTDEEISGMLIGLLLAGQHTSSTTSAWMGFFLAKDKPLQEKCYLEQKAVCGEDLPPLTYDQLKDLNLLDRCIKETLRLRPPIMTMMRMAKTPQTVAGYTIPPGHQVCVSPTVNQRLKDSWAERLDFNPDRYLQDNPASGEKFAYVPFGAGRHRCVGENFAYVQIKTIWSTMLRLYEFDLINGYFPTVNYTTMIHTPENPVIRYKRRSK
# [29] = biological target: T1, Lanosterol 14-alpha demethylase; assay: Inhibition of CYP51 in mouse NIH/3T3 cells assessed as specific enzymatic activity at 50 ug/ml incubated for 48 hrs by ELISA analysis; assay type: ADME, cell-based; conditions: nih/3t3, 48 h, dose 50 µg/ml
# [30] = biological target: T1, Lanosterol 14-alpha demethylase; assay: Inhibition of CYP51 in mouse NIH/3T3 cells assessed as specific enzymatic activity at 100 ug/ml incubated for 48 hrs by ELISA analysis; assay type: ADME, cell-based; conditions: nih/3t3, 48 h, dose 100 µg/ml
# [31] = biological target: T1, Lanosterol 14-alpha demethylase; assay: Inhibition of CYP51 in mouse NIH/3T3 cells assessed as specific enzymatic activity at 150 ug/ml incubated for 48 hrs by ELISA analysis; assay type: ADME, cell-based; conditions: nih/3t3, 48 h, dose 150 µg/ml
# [32] = biological target: T1, Lanosterol 14-alpha demethylase; assay: Inhibition of CYP51 in mouse NIH/3T3 cells assessed as specific enzymatic activity at 200 ug/ml incubated for 48 hrs by ELISA analysis; assay type: ADME, cell-based; conditions: nih/3t3, 48 h, dose 200 µg/ml
# [33] = test system: Mucor circinelloides; assay: Antifungal activity against Mucor circinelloides R7B wild type strain assessed as few mycelia with several spores at 50 ug/ml by microscopic analysis; assay type: functional, organism-based; conditions: dose 50.0 µg/ml
# [34] = test system: Mucor circinelloides; assay: Antifungal activity against Mucor circinelloides M5 strain assessed as few mycelia with several spores at 50 ug/ml by microscopic analysis; assay type: functional, organism-based; conditions: dose 50.0 µg/ml
# [35] = test system: Mucor circinelloides; assay: Antifungal activity against Mucor circinelloides R7B wild type strain assessed as non-germinated spores and undifferentiated hyphae at 50 ug/ml by microscopic analysis; assay type: functional, organism-based; conditions: dose 50.0 µg/ml
# [36] = test system: Mucor circinelloides; assay: Antifungal activity against Mucor circinelloides M5 strain assessed as non-germinated spores and undifferentiated hyphae at 50 ug/ml by microscopic analysis; assay type: functional, organism-based; conditions: dose 50.0 µg/ml
# [37] = test system: Mucor circinelloides; assay: Antifungal activity against Mucor circinelloides R7B wild type strain assessed as complete absence of mycelia at 100 to 150 ug/ml by microscopic analysis; assay type: functional, organism-based; conditions: dose 100-150 µg/ml
# [38] = test system: Mucor circinelloides; assay: Antifungal activity against Mucor circinelloides M5 strain assessed as complete absence of mycelia at 100 to 150 ug/ml by microscopic analysis; assay type: functional, organism-based; conditions: dose 100-150 µg/ml
# [39] = test system: Mucor circinelloides; assay: Antifungal activity against Mucor circinelloides R7B wild type strain assessed as non-germinated spores at 100 to 150 ug/ml by microscopic analysis; assay type: functional, organism-based; conditions: dose 100-150 µg/ml
# [40] = test system: Mucor circinelloides; assay: Antifungal activity against Mucor circinelloides M5 strain assessed as non-germinated spores at 100 to 150 ug/ml by microscopic analysis; assay type: functional, organism-based; conditions: dose 100-150 µg/ml
structure (smiles),measurement,setting,value
OC(Cn1cncn1)(Cn1cncn1)c1ccc(F)cc1F [FLUCONAZOLE],Activity,[1],83.3%
same,Activity,[2],72.6%
same,Activity,[3],28.2%
same,Activity,[4],30.4%
same,Activity,[5],4.8%
same,Activity,[6],6.7%
same,MIC,[7],50 µg/mL
same,MIC,[8],50 µg/mL
same,MIC,[9],50 µg/mL
same,MIC,[10],50 µg/mL
same,MIC,[11],50 µg/mL
same,MIC,[12],> 150 µg/mL
same,MIC,[13],75 µg/mL
same,MIC,[14],75 µg/mL
same,MIC,[15],75 µg/mL
same,MIC,[16],75 µg/mL
same,MIC,[17],75 µg/mL
same,MIC,[18],50 µg/mL
same,MIC,[19],50 µg/mL
same,MIC,[20],50 µg/mL
same,MIC,[21],50 µg/mL
same,MIC,[22],150 µg/mL
same,"viability at 48 h, 25 ug/ml",[23],98.2%
same,"viability at 48 h, 50 ug/ml",[24],25%
same,"viability at 48 h, 100 ug/ml",[25],18.8%
same,"viability at 48 h, 150 ug/ml",[26],15.5%
same,"viability at 48 h, 200 ug/ml",[27],15.7%
same,Activity,[28],12.8 U/mg
same,Activity,[29],7.18 U/mg
same,Activity,[30],2.49 U/mg
same,Activity,[31],1.25 U/mg
same,Activity,[32],0 U/mg
same,Activity,[33],Active
same,Activity,[34],Active
same,Activity,[35],Active
same,Activity,[36],Active
same,Activity,[37],Active
same,Activity,[38],Active
same,Activity,[39],Active
same,Activity,[40],Active
